The values below come from patent US8927024B1, “Antimicrobial polyanhydride nanoparticles” (priority 2009, dated 2015).

One test deals with Brucella melitensis 16M. Particulars: in vivo; cited from earlier work.
Test [1] relates to Mycobacterium avium subsp. paratuberculosis (MAP). Put plainly: Viability of MAP in broth culture (% live MAP by flow). The following applies: for viability at 1.25 µg/mL / viability at 10 µg/mL: Mycobacterium avium, read-out: % live MAP (viability of MAP in broth).

Values joined by “and” are separate entries in the source; they are usually repeats but may differ in a detail not shown here. Equal entries are not always repeated. Where two headings read alike, the source gives them in different places.

For the compound gentamicin [Free GEN], in the test on Brucella melitensis 16M, the “Log CFU/spleen” value is 6.77 ± 0.12 Log CFU/spleen; the “Reduction (log)” value is 0.08 log and 0.04 log; the Spleen wt was 0.86 ± 0.05 g and 0.83 ± 0.26 g.

Regarding `NCC[C@H](O)C(=O)N[C@@H]1C[C@H](N)[C@@H](O[C@H]2O[C@H](CN)[C@@H](O)[C@H](O)[C@H]2O)[C@H](O)[C@H]1O[C@H]1O[C@H](CO)[C@@H](O)[C@H](N)[C@H]1O` [Soluble, amikacin], the “antimicrobial activity in MAP cultures” value in test [1] (FIG. 15, 10 μg/mL amikacin) was “minimal antimicrobial activity”. Also, in test [1] (24 h), the viability at 1.25 µg/mL came out at 93.8% and the viability at 10 µg/mL turned out to be 90.1%. In test [1] (48 h), the viability at 1.25 µg/mL was 88.4% and the viability at 10 µg/mL came to 84.8%.

What is called viability is the share of living cells, or the viability signal relative to a control.
